Reference: paper PMC12029069, “Synthesis and Evaluation of Antitumor and Anti-Angiogenesis Activity of Pyrone- or Pyridone-Embedded Analogs of Cortistatin A” (Marine Drugs, 2025)
Read-outs that look alike come from different tables or passages of the source. Marks after values point to notes of the source that are not given here.

Tests used:
[1] = test system: human epidermoid carcinoma KB3-1 cells; conditions: cited from earlier work
HUVECs [2] = conditions: cited from earlier work; for S.I. (selective index: IC50 against KB3-1 cells/IC50 against HUVECs): KB3-1 over HUVECs
[3] = test system: human epidermoid carcinoma KB3-1 cells; test: Antiproliferative activity against KB3-1 cancer cells (WST-8, 72 h); format: cell-based
Procedure: KB3-1 cells were cultured in RPMI-1640 medium supplemented with 10% heat-inactivated fetal bovine serum and kanamycin (50 μg/mL). Cells were plated into 96-well microplates at 2 × 10^3 cells/100 μL assay medium/well, and various concentrations of test compounds were added to each well as a 5% DMSO/EtOH or EtOH solution (1 µL). The plates were incubated at 37 °C in a humidified atmosphere of 5% CO2 for 72 h, and cell proliferation was determined by WST-8 colorimetric assay as above, and the averaged IC50 values of the triplicate experiment are shown in Table 1.

HUVECs [4] = test: Antiproliferative activity against HUVECs (WST-8, 72 h); format: cell-based, human; conditions: for IC50: 72 h, WST-8, average of triplicate; for S.I. (selective index: IC50 against KB3-1 cells/IC50 against HUVECs): KB3-1 over HUVECs
Procedure: HUVECs (5 × 10^5 cells/vial) were purchased from Kurabo Inc. and grown in HuMedia-EG2 medium with growth supplements (Kurabo, Osaka, Japan). HUVECs in the culture medium were plated into each well of 96-well plates (2 × 10^3 cells/well/100 µL). After 24 h, the serially diluted compounds as a 5% DMSO/EtOH or EtOH solution (1 µL) were added, and then the plates were incubated for an additional 72 h in a humidified atmosphere of 5% CO2 at 37 °C. The cell proliferation was detected by WST-8 colorimetric reagent (Nacalai Tesque, Inc., Kyoto, Japan). The IC50 value was determined by linear interpolation from the growth inhibition curve, and the averaged IC50 values of the triplicate experiment are shown in Table 1.

[5] = Body weight of mice during the Matrigel plug assay (acute toxicity); format: in vivo; conditions: mean ± SD
Procedure: The body weight of mice of the control group (bFGF (+) or (−)) and the groups treated with the testing compound (0.1, 0.3, and 1 mg/kg) at day 1 and day 9 were measured. The mean activities of aspartate aminotransferase (AST) and alanine aminotransferase (ALT) in mouse serum at day 10 of control group and the 1 mg/kg treated group were measured using the LabAssay^TM AST or ALT kit (FUJIFILM Wako Pure Chemical Co., Osaka, Japan), respectively.

[6] = test system: Murine sarcoma S180 cells; test: In vivo antitumor effect in mice inoculated with sarcoma S180 cells; conditions: every other day for 14 days, S180 s.c. in ddY mice
Excerpt: Murine sarcoma S180 cells (1 × 10^6 cells/body) were implanted subcutaneously into the right ventral flank of female ddY mice (6 weeks old). After one week from implantation, analog 19 was orally administered on every other day for 14 days (total 7 times) as a suspension in 1% CMC-Na. Then, the tumor was isolated and weighed to calculate the inhibition ratio. The control group and the group treated with the testing compound consisted of six mice each in this study.

[7] = Hepatic toxicity: AST and ALT activities in mouse serum; format: in vivo, mice; conditions: 1 mg/kg oral treatment group, day 9
Procedure: The body weight of mice of the control group (bFGF (+) or (−)) and the groups treated with the testing compound (0.1, 0.3, and 1 mg/kg) at day 1 and day 9 were measured. […]

[8] = test system: new blood vessels in the Matrigel plug induced by bFGF; test: In vivo Matrigel plug assay (bFGF-induced angiogenesis, hemoglobin content); set-up: species or system mice; conditions: 0.3 mg/kg oral, every other day (5 times), day 10, mean ± SD
Procedure: All animal procedures were approved by the Committee on Animal Experimentation of Osaka University (Approval number: DouYaku 24-8-1). The measurements of in vivo angiogenesis using Matrigel plugs were performed as described previously. An aliquot (250 µL) of Matrigel containing 200 ng/mL of bFGF and 100 U/mL of heparin was injected subcutaneously into the ventral side of female ddY mice (6 weeks old, N = 4, Japan SLC, Inc., Shizuoka, Japan). Then, analog 19 was orally administered on every other day (total 5 times: day 1, 3, 5, 7, and 9) as a suspension in 1% sodium carboxymethyl cellulose (CMC-Na). At day 10, the Matrigel plugs were photographed and removed. The levels of new vessels were quantified by measuring the hemoglobin of the Matrigel plug (µg hemoglobin/mg Matrigel) with the Drabkin reagent Kit.

CDK8 = conditions: ref [37]; cited from earlier work
[9] = Homo sapiens, KB 3-1, WST-8, average of triplicate

## C[C@]12CCC3=CC4=C(CCCC4=O)O[C@H]3[C@@H]1CC[C@@H]2c1ccc2ccncc2c1 [Compound 2]
[1]; reported value ref [21]
  IC50: 10500 nM
HUVECs [2]; ref [21]
  S.I. (selective index: IC50 against KB3-1 cells/IC50 against HUVECs): 300 ^c
HUVECs [2]; reported value ref [21]
  IC50: 35 nM

## CC(=O)NCC1CC(=O)C2=C(C1)O[C@@H]1C(=C2)CC[C@]2(C)[C@@H](c3ccc4ccncc4c3)CC[C@@H]12 (stereo partly shown) [Compound 3]
[1]; reported value ref [21]
  IC50: 8200 nM
HUVECs [2]; ref [21]
  S.I. (selective index: IC50 against KB3-1 cells/IC50 against HUVECs): 3150 ^c
HUVECs [2]; reported value ref [21]
  IC50: 2.6 nM

## Cc1cc2c(c(=O)o1)C=C1CC[C@]3(C)[C@@H](c4ccc5ccncc5c4)CC[C@H]3[C@@H]1O2 [Compound 7, (3S,3aR,11aS,11bR)-3-(Isoquinolin-7-yl)-3a,9-dimethyl-1,2,3,3a,4,5,11a,11b-octahydro-7H-cyclopenta[h]pyrano[4,3-b]chromen-7-one]
[3]; [9]
  IC50: 62800 nM
HUVECs [4]; Homo sapiens, HUVEC
  IC50: 90 nM
HUVECs [4]
  S.I. (selective index: IC50 against KB3-1 cells/IC50 against HUVECs): 700

## Cc1oc(=O)c2c(c1CO)O[C@@H]1C(=C2)CC[C@]2(C)[C@@H](c3ccc4ccncc4c3)CC[C@@H]12 [Compound 11, (3S,3aR,11aS,11bR)-10-(Hydroxymethyl)-3-(isoquinolin-7-yl)-3a,9-dimethyl-1,2,3,3a,4,5,11a,11b-octahydro-7H-cyclopenta[h]pyrano[4,3-b]chromen-7-one]
[3]; [9]
  IC50: 10000 nM
HUVECs [4]; Homo sapiens, HUVEC
  IC50: 20 nM
HUVECs [4]
  S.I. (selective index: IC50 against KB3-1 cells/IC50 against HUVECs): 500

## C[C@]12CCC3=Cc4c(cc[nH]c4=O)O[C@H]3[C@@H]1CC[C@@H]2c1ccc2ccncc2c1 [Compound 13, (3S,3aR,11aS,11bR)-3-(Isoquinolin-7-yl)-3a-methyl-2,3,3a,4,5,8,11a,11b-octahydrocyclopenta[7, 8]chromeno[3,2-c]pyridin-7(1H)-one]
[3]; [9]
  IC50: 11000 nM
HUVECs [4]; Homo sapiens, HUVEC
  IC50: 10 nM
HUVECs [4]
  S.I. (selective index: IC50 against KB3-1 cells/IC50 against HUVECs): 1100
HUVECs [4]; relative to analog 7
  fold higher potency than 7 against HUVECs: 9 fold

## Cn1ccc2c(c1=O)C=C1CC[C@]3(C)[C@@H](c4ccc5ccncc5c4)CC[C@H]3[C@@H]1O2 [Compound 15, (3S,3aR,11aS,11bR)-3-(Isoquinolin-7-yl)-3a,8-dimethyl-2,3,3a,4,5,8,11a,11b-octahydrocyclopenta[7, 8]chromeno[3,2-c]pyridin-7(1H)-one]
[3]; [9]
  IC50: 8600 nM
HUVECs [4]; Homo sapiens, HUVEC
  IC50: 3 nM
HUVECs [4]
  S.I. (selective index: IC50 against KB3-1 cells/IC50 against HUVECs): 2870
HUVECs [4]; relative to analog 13
  fold potency over 13 against HUVECs: 3.3 fold

## Cn1cc(CO)c2c(c1=O)C=C1CC[C@]3(C)[C@@H](c4ccc5ccncc5c4)CC[C@H]3[C@@H]1O2 [Compound 19, (3S,3aR,11aS,11bR)-10-(Hydroxymethyl)-3-(isoquinolin-7-yl)-3a,8-dimethyl-2,3,3a,4,5,8,11a,11b-octahydrocyclopenta[7, 8]chromeno[3,2-c]pyridin-7(1H)-one]
[5]; 0.1 mg/kg oral
  Body Weight Day 1: 25.70 ± 0.58 g
  Body Weight Day 9: 26.12 ± 0.58 g
[5]; 0.3 mg/kg oral
  Body Weight Day 1: 25.60 ± 0.64 g
  Body Weight Day 9: 26.14 ± 0.62 g
[5]; 1.0 mg/kg oral
  Body Weight Day 1: 26.30 ± 0.41 g
[6]; 0.1 mg/kg oral
  tumor growth inhibition, reduction compared to the control group: ~ 75%
[6]; 1 mg/kg oral
  tumor weight reduction: more than 85%
[3]; WST-8, average of triplicate
  IC50: 6400 nM
[7]
  ALT (alanine aminotransferase activity): 48.4 ± 3.3 IU/L
  AST (aspartate aminotransferase activity): 57.8 ± 4.5 IU/L
[8]
  Hb Content (hemoglobin µg/isolated Matrigel mg): 2.42 ± 0.79 µg/mg
HUVECs [4]
  IC50: 1 nM
  S.I. (selective index: IC50 against KB3-1 cells/IC50 against HUVECs): 6400

## CC(=O)NCc1c2c(c(=O)n(C)c1C)C=C1CC[C@]3(C)[C@@H](c4ccc5ccncc5c4)CC[C@H]3[C@@H]1O2 [Compound 27, N-(((3S,3aR,11aS,11bR)-3-(Isoquinolin-7-yl)-3a,8,9-trimethyl-7-oxo-1,2,3,3a,4,5,7,8,11a,11b-decahydrocyclopenta[7, 8]chromeno[3,2-c]pyridin-10-yl)methyl)acetamide]
[3]; WST-8, average of triplicate
  IC50: 13400 nM
HUVECs [4]
  IC50: 10 nM
  S.I. (selective index: IC50 against KB3-1 cells/IC50 against HUVECs): 1340

## CN(C)[C@H]1CC[C@@]2(C)[C@@H](CC[C@@H]3[C@@H]2CC[C@]2(C)[C@@H](c4ccc5ccncc5c4)CC[C@@H]32)C1 [Compound 28, reference compound]
[3]; [9]
  IC50: 4800 nM
HUVECs [4]; Homo sapiens, HUVEC
  IC50: 560 nM
HUVECs [4]
  S.I. (selective index: IC50 against KB3-1 cells/IC50 against HUVECs): 8.6
CDK8
  IC50: 24 nM

## Cortistatin A [Compound 1]
[1]; reported value ref [8]
  IC50: 7000 nM
HUVECs [2]; ref [8]
  S.I. (selective index: IC50 against KB3-1 cells/IC50 against HUVECs): 3900 ^b
HUVECs [2]; reported value ref [8]
  IC50: 1.8 nM
